Consider one compound from patent US20240238309A1, “PHARMACEUTICAL FORMULATIONS OF TREPROSTINIL PRODRUGS AND METHODS OF USE THEREOF” (Insmed Incorporated, priority 2020, published 2024).

The data set in a line: Solubility of C16TR in propellants. It counts as physicochemical. The conditions noted are these: HFA134a, HFA227ea, and HFA152a. From the text:
C16TR is insoluble in all commercially available propellants (HFA134a, HFA227ea, and HFA152a) and requires the use of alcohol co-solvent. When formulated with DSPE-PEG2000 and PEG400 for use with an MDI as well as desirable in vivo performance, the formulation required approximately 10% of alcohol co-solvent. Such a high level of alcohol co-solvent may lead to reduced chemical stability and aerosol performance. Unexpected improvement in chemical stability was observed when a switch from ethanol (industry standard cosolvent) to isopropyl alcohol (novel excipient) was made, as in the C16TR-MDI-W formulation.

For `CCCCCCCCCCCCCCCCOC(=O)COc1cccc2c1C[C@H]1C[C@@H](O)[C@H](CC[C@@H](O)CCCCC)[C@H]1C2` [Formulation C16TR, Treprostinil palmitil], the “solubility in commercially available propellants” value is reported as “insoluble”.
